Experimental data published in publication PMC10709440, “High-throughput ligand profile characterization in novel cell lines expressing seven heterologous insect olfactory receptors for the detection of volatile plant biomarkers” (Scientific Reports, 2023).
Read-outs that look alike come from different tables or passages of the source.

How the values were obtained:
Drosophila OR13a = target: T1, Drosophila OR13a (Drosophila melanogaster, UniProt Q9VXL0); assay: Calcium ion fluorescence (GCaMP6) assay, OR13a stable HEK293 cell line; format: cell-based; set-up: key to DF norm AVERAGE OR13a: VOC ∆F divided by the plate's mean ∆F response to 50 µM VUAA1
T1 construct: expressed in transfected cells
T1 sequence (Q9VXL0 1-418): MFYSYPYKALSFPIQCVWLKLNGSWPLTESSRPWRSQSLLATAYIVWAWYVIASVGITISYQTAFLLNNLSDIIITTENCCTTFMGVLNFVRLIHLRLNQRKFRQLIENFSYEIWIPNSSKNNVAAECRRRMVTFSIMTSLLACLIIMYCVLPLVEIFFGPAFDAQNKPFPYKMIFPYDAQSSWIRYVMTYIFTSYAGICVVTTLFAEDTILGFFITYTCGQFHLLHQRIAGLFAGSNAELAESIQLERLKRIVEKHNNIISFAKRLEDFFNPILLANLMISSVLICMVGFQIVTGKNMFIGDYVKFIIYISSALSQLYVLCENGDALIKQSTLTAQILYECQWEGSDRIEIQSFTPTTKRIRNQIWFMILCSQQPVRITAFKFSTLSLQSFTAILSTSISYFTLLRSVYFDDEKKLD
T1 sequence (Q9VNB5 1-486 partner): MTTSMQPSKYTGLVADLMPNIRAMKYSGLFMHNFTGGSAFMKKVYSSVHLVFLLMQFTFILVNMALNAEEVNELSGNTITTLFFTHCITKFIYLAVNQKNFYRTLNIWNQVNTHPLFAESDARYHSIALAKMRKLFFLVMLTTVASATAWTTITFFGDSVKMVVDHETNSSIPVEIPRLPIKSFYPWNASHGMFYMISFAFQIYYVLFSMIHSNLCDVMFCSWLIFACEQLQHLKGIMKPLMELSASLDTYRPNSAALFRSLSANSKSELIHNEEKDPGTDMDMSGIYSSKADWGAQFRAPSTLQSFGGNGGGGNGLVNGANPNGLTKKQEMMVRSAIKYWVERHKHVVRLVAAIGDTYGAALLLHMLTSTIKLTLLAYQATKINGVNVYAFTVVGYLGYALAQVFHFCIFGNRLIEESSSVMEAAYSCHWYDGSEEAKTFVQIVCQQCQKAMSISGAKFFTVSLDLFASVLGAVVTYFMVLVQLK
Method: These VUAA1 normalized ∆F values were used to compare the different receptors and ligands.
The concentration-dependent effect of the reference ligands on their cognate cell lines was examined in more detail. Twelve different ligand concentrations were measured on each cell line in an overall 0.01 μM to 100 μM concentration range with 5 repetitions with three technical replicates each time.
Twelve thousand to 18,000 cells were plated into each well of a black wall, transparent bottom 384-well microplate (Greiner) 48 h or 72 h before the measurements and were simultaneously treated with 1 μg/mL doxycycline. […] The plate has 24 columns, thus we could record responses in up to eight different cell lines in each plate. On the day of the experiment, the growth medium was replaced with 20 µL assay buffer/well (140 mM NaCl, 5 mM KCl, 2 mM CaCl2, 1 mM MgCl2, 5 mM HEPES-Na, 20 mM glucose, pH 7.3, 340 mOsm). […] Baseline fluorescence (F0) was recorded for 5 s, after which 7 µL VOC buffer (140 mM NaCl, 5 mM KCl, 2 mM CaCl2, 1 mM MgCl2, 5 mM HEPES-Na, 31 mM glucose, 0.1% DMSO, pH 7.3, 340 mOsm) was injected into each well in one row and the fluorescence response was recorded for an additional 30 s, at a rate of one read/sec. VOC solutions (VOC buffer with 4× concentration of the final measured VOC concentration, 9 µL/well was injected) were measured on the same wells in a second round with the same protocol. Each individual concentration of a specific VOC sample was recorded in three wells for the same cell line on the same microplate. The raw data were exported in xls file format, F0 and FMAX values, and the fluorescence intensity changes (∆F) were calculated in Excel (Microsoft) (Supplementary file Data summary.xlsx) using the following equation: ΔF=FMAX-F0/F0 (see also Fig. 1C). On each plate, we recorded the response of each cell line to 50 µM VUAA1. The average of these ∆F values of each cell line were used to calculate the VUAA1-normalized values for the rest of the plate, by dividing VOC response ∆F values by the average VUAA1 response ∆F value of the corresponding OR cell line. Each VOC-OR combination was measured three times as technical replicates. […] The average of these replicates were used as one ∆F and VUAA1-normalized ∆F in the following analysis.
In the next rows we tested the reference VOCs (or other VOCs known to activate the corresponding cell lines), in order to test if all cell lines are responsive. The remaining rows were used to test VOCs with unknown effect.
The recorded FMAX, F0, ∆F, VUAA1-normalized ∆F values, as well as the OR name, the name of the tested sample, and the final concentration for each well were copied into supplementary file Data summary.xlsx, that was used to summarize all the plates recorded. Here, the averages of the measurements were calculated for each receptor-VOC-concentration combination.

Drosophila OR47a = target: T2, Drosophila OR47a (Drosophila melanogaster, UniProt P81921); assay: Calcium ion fluorescence (GCaMP6) assay, OR47a stable HEK293 cell line; format: cell-based; set-up: key to DF norm AVERAGE OR47a: VOC ∆F divided by the plate's mean ∆F response to 50 µM VUAA1; details: for activation at 1 µM / activation at 10 µM / activation at 100 µM: HEK293, read-out: OR47a response (VUAA1-normalized response); for Average response: OR47a cell line, mean of biological replicates
T2 construct: expressed in transfected cells
T2 sequence (P81921 1-385): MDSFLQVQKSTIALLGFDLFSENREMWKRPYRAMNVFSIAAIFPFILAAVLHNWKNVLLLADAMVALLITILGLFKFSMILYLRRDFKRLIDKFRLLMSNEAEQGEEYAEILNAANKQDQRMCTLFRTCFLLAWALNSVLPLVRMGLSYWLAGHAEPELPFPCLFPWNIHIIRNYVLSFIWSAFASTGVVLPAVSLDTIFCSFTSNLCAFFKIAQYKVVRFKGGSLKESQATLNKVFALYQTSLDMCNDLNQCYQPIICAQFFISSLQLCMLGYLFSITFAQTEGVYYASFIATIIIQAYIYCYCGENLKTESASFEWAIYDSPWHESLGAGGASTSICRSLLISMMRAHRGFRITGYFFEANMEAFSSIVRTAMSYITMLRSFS
T2 sequence (Q9VNB5 1-486 partner): T1 sequence (Q9VNB5 1-486 partner)
How it was run: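 HEK293 lines stably expressing each Drosophila OR with GCaMP6, doxycycline-induced (1 μg/mL) 48 or 72 h. Fluorescence recorded 5 s baseline then 30 s after VOC injection at pH 7.3; ΔF=(FMAX−F0)/F0, normalized to 50 µM VUAA1 response per line, triplicate wells averaged; concentration series 0.01–100 μM.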

[1] = HEK293, read-out: OR13a Average response (VUAA1-normalized), 1 μM VOC, 50 μM VUAA1 = 1, responses not exceeding 0.05 considered 0
[2] = HEK293, read-out: OR13a Average response (VUAA1-normalized), 10 μM VOC, 50 μM VUAA1 = 1, responses not exceeding 0.05 considered 0
[3] = HEK293, read-out: OR13a Average response (VUAA1-normalized), 100 μM VOC, 50 μM VUAA1 = 1, responses not exceeding 0.05 considered 0
[4] = HEK293, read-out: OR13a response (VUAA1-normalized response), VOC concentration 1 μM
[5] = HEK293, read-out: OR13a response (VUAA1-normalized response), VOC concentration 10 μM
[6] = HEK293, read-out: OR13a response (VUAA1-normalized response), VOC concentration 100 μM
[7] = concentration 1, normalized fluorescence change, values below 0.05 threshold given as 0
[8] = concentration 10, normalized fluorescence change, values below 0.05 threshold given as 0
[9] = concentration 100, normalized fluorescence change, values below 0.05 threshold given as 0
[10] = HEK293, read-out: OR13a Average response (VUAA1-normalized)
[11] = HEK293, read-out: OR13a response (VUAA1-normalized response)
[12] = ligand concentration 1 (unit not given), threshold 0.05, below shown as 0
[13] = ligand concentration 10 (unit not given), threshold 0.05, below shown as 0
[14] = ligand concentration 100 (unit not given), threshold 0.05, below shown as 0

In the case of `CCCCCO` [1-pentanol], the activation at 1 µM (Drosophila OR13a; [1]) is reported as 0%, the activation at 10 µM (Drosophila OR13a; [2]) is reported as 1.6% and the activation at 100 µM (Drosophila OR13a; [3]) is reported as 0%. It also gave an activation at 1 µM (Drosophila OR13a; [4]) of 0%, an activation at 10 µM (Drosophila OR13a; [5]) of 0% and an activation at 100 µM (Drosophila OR13a; [6]) of 0%. The “DF norm AVERAGE OR13a” value (Drosophila OR13a; [7]) was 0, the “DF norm AVERAGE OR13a” value (Drosophila OR13a; [8]) was 0 and the “DF norm AVERAGE OR13a” value (Drosophila OR13a; [9]) was 0. The activation at 1 µM (Drosophila OR47a) was 0%, the activation at 10 µM (Drosophila OR47a) was 0% and the activation at 100 µM (Drosophila OR47a) was 0%. The Average response (Drosophila OR47a; odorant cc. 1 µM) was 0.00, the Average response (Drosophila OR47a; odorant cc. 10 µM) was 0.00 and the Average response (Drosophila OR47a; odorant cc. 100 µM) was 0.00. The “DF norm AVERAGE OR47a” value (Drosophila OR47a; [7]) was 0, the “DF norm AVERAGE OR47a” value (Drosophila OR47a; [8]) was 0 and the “DF norm AVERAGE OR47a” value (Drosophila OR47a; [9]) was 0.

Work on `CCc1ccccc1` [ethylbenzene] yielded an activation at 1 µM (Drosophila OR13a; [10]) of 1.44%, an activation at 10 µM (Drosophila OR13a; [10]) of 1.55% and an activation at 100 µM (Drosophila OR13a; [10]) of 0%. The activation at 1 µM (Drosophila OR13a; [11]) was 0%, the activation at 10 µM (Drosophila OR13a; [11]) was 0% and the activation at 100 µM (Drosophila OR13a; [11]) was 0%. For the same molecule, the “DF norm AVERAGE OR13a” value (Drosophila OR13a; [12]) was 0, the “DF norm AVERAGE OR13a” value (Drosophila OR13a; [13]) was 0 and the “DF norm AVERAGE OR13a” value (Drosophila OR13a; [14]) was 0. For the same molecule, the activation at 1 µM (Drosophila OR47a) was 0%, the activation at 10 µM (Drosophila OR47a) was 0% and the activation at 100 µM (Drosophila OR47a) was 0%. The Average response (Drosophila OR47a; odorant cc. 1 µM) was 0.0189, the Average response (Drosophila OR47a; odorant cc. 10 µM) was 0.0233 and the Average response (Drosophila OR47a; odorant cc. 100 µM) was 0.00. The “DF norm AVERAGE OR47a” value (Drosophila OR47a; [12]) was 0, the “DF norm AVERAGE OR47a” value (Drosophila OR47a; [13]) was 0 and the “DF norm AVERAGE OR47a” value (Drosophila OR47a; [14]) was 0.

Work on `CCCC(=O)OCC` [ethyl butyrate] yielded an activation at 1 µM (Drosophila OR13a; [1]) of 0%, an activation at 10 µM (Drosophila OR13a; [2]) of 0% and an activation at 100 µM (Drosophila OR13a; [3]) of 0%. The activation at 1 µM (Drosophila OR13a; [4]) was 0%, the activation at 10 µM (Drosophila OR13a; [5]) was 0% and the activation at 100 µM (Drosophila OR13a; [6]) was 0%. For the same molecule, the “DF norm AVERAGE OR13a” value (Drosophila OR13a; [12]) was 0, the “DF norm AVERAGE OR13a” value (Drosophila OR13a; [13]) was 0 and the “DF norm AVERAGE OR13a” value (Drosophila OR13a; [14]) was 0. For the same molecule, the activation at 1 µM (Drosophila OR47a) was 0%, the activation at 10 µM (Drosophila OR47a) was 0% and the activation at 100 µM (Drosophila OR47a) was 0%. For the same molecule, the Average response (Drosophila OR47a; odorant cc. 1 µM) was 0.00, the Average response (Drosophila OR47a; odorant cc. 10 µM) was 0.00 and the Average response (Drosophila OR47a; odorant cc. 100 µM) was 0.0448. For the same molecule, the “DF norm AVERAGE OR47a” value (Drosophila OR47a; [12]) was 0, the “DF norm AVERAGE OR47a” value (Drosophila OR47a; [13]) was 0 and the “DF norm AVERAGE OR47a” value (Drosophila OR47a; [14]) was 0.
